# Assay results: ChEMBL document CHEMBL1275576, “In vitro activity of tomopenem (CS-023/RO4908463) against anaerobic bacteria” (Antimicrob Agents Chemother, 2009)
# Assays:
# [1] = test system: Bacteroides eggerthii DSM 20697; experiment: Antimicrobial activity against Bacteroides eggerthii ATCC 27754 by agar dilution method in presence of 5% laked sheep blood; assay type: functional
# [2] = Antimicrobial activity against Bifidobacterium longum subsp. longum ATCC 15707 by agar dilution method in presence of 5% laked sheep blood; assay type: functional
# [3] = test system: Veillonella parvula; experiment: Antimicrobial activity against Veillonella parvula ATCC 10790 by agar dilution method in presence of 5% laked sheep blood; assay type: functional
# [4] = test system: Bacteroides thetaiotaomicron; experiment: Antimicrobial activity against Bacteroides thetaiotaomicron ATCC 29741 by agar dilution method in presence of 5% laked sheep blood; assay type: functional
# [5] = test system: Bacteroides fragilis; experiment: Antimicrobial activity against carbapenemase-producing Bacteroides fragilis GAI 30079 by agar dilution method in presence of 5% laked sheep blood; assay type: functional
# [6] = test system: Prevotella bivia; experiment: Antimicrobial activity against Prevotella bivia ATCC 29303 by agar dilution method in presence of 5% laked sheep blood; assay type: functional; conditions: DSM 20514
# [7] = test system: Bifidobacterium pseudolongum; experiment: Antimicrobial activity against Bifidobacterium pseudolongum ATCC 25526 by agar dilution method in presence of 5% laked sheep blood; assay type: functional
# [8] = test system: Clostridium septicum; experiment: Antimicrobial activity against Clostridium septicum ATCC 12464 by agar dilution method in presence of 5% laked sheep blood; assay type: functional
# [9] = test system: Lactobacillus salivarius; experiment: Antimicrobial activity against Lactobacillus salivarius subsp. salivarius JCM 1231 by agar dilution method in presence of 5% laked sheep blood; assay type: functional; conditions: Ligilactobacillus salivarius
# [10] = test system: Peptostreptococcus anaerobius; experiment: Antimicrobial activity against Peptostreptococcus anaerobius ATCC 27337 by agar dilution method in presence of 5% laked sheep blood; assay type: functional
# [11] = test system: Hoylesella oralis; experiment: Antimicrobial activity against Prevotella oralis ATCC 33269 by agar dilution method in presence of 5% laked sheep blood; assay type: functional
# [12] = test system: Lacticaseibacillus casei; experiment: Antimicrobial activity against Lactobacillus casei subsp. casei JCM 1134 by agar dilution method in presence of 5% laked sheep blood; assay type: functional
# [13] = test system: Porphyromonas gingivalis; experiment: Antimicrobial activity against Porphyromonas gingivalis ATCC 33277 by agar dilution method in presence of 5% laked sheep blood; assay type: functional
# [14] = test system: Schaalia odontolytica; experiment: Antimicrobial activity against Actinomyces odontolyticus GAI 91002 by agar dilution method in presence of 5% laked sheep blood; assay type: functional
# [15] = test system: Anaerococcus prevotii; experiment: Antimicrobial activity against Anaerococcus prevotii ATCC 9321 by agar dilution method in presence of 5% laked sheep blood; assay type: functional
# [16] = test system: Propionibacterium granulosum; experiment: Antimicrobial activity against Propionibacterium granulosum ATCC 25564 by agar dilution method in presence of 5% laked sheep blood; assay type: functional; conditions: Cutibacterium granulosum
# [17] = test system: Peptoniphilus asaccharolyticus; experiment: Antimicrobial activity against Peptoniphilus asaccharolyticus WAL 3218 by agar dilution method in presence of 5% laked sheep blood; assay type: functional
# [18] = test system: Limosilactobacillus fermentum; experiment: Antimicrobial activity against Lactobacillus fermentum JCM 1173 by agar dilution method in presence of 5% laked sheep blood; assay type: functional
# [19] = test system: Bilophila wadsworthia; experiment: Antimicrobial activity against Bilophila wadsworthia WAL 7959 by agar dilution method in presence of 5% laked sheep blood; assay type: functional
# [20] = test system: Bacteroides fragilis; experiment: Antimicrobial activity against carbapenemase-producing Bacteroides fragilis GAI 30144 by agar dilution method in presence of 5% laked sheep blood; assay type: functional
# [21] = test system: Gemella morbillorum; experiment: Antimicrobial activity against Gemella morbillorum ATCC 27824 by agar dilution method in presence of 5% laked sheep blood; assay type: functional
# [22] = test system: Prevotella intermedia; experiment: Antimicrobial activity against Prevotella intermedia ATCC 25611 by agar dilution method in presence of 5% laked sheep blood; assay type: functional
# [23] = test system: Bacteroides heparinolyticus; experiment: Antimicrobial activity against Prevotella heparinolytica ATCC 35895 by agar dilution method in presence of 5% laked sheep blood; assay type: functional
# [24] = test system: Bifidobacterium bifidum; experiment: Antimicrobial activity against Bifidobacterium bifidum JCM 1255 by agar dilution method in presence of 5% laked sheep blood; assay type: functional
# [25] = test system: Thomasclavelia ramosa; experiment: Antimicrobial activity against Clostridium ramosum ATCC 25582 by agar dilution method in presence of 5% laked sheep blood; assay type: functional
# [26] = test system: Fusobacterium varium; experiment: Antimicrobial activity against Fusobacterium varium ATCC 8501 by agar dilution method in presence of 5% laked sheep blood; assay type: functional
# [27] = test system: Lactobacillus brevis; experiment: Antimicrobial activity against Lactobacillus brevis subsp. brevis JCM 1059 by agar dilution method in presence of 5% laked sheep blood; assay type: functional; conditions: Levilactobacillus brevis
# [28] = test system: Peptoniphilus indolicus; experiment: Antimicrobial activity against Peptoniphilus indolicus GAI 0915 by agar dilution method in presence of 5% laked sheep blood; assay type: functional
# [29] = test system: Bacteroides fragilis; experiment: Antimicrobial activity against Bacteroides fragilis NCTC 10581 by agar dilution method in presence of 5% laked sheep blood; assay type: functional
# [30] = test system: Prevotella corporis; experiment: Antimicrobial activity against Prevotella corporis GAI 91000 by agar dilution method in presence of 5% laked sheep blood; assay type: functional
# [31] = test system: Streptococcus intermedius; experiment: Antimicrobial activity against Streptococcus intermedius ATCC 27335 by agar dilution method in presence of 5% laked sheep blood; assay type: functional
# [32] = test system: Campylobacter ureolyticus; experiment: Antimicrobial activity against Bacteroides ureolyticus NCTC 10941 by agar dilution method in presence of 5% laked sheep blood; assay type: functional
# [33] = test system: Enterocloster clostridioformis; experiment: Antimicrobial activity against Clostridium clostridioforme NCTC 11224 by agar dilution method in presence of 5% laked sheep blood; assay type: functional
# [34] = test system: Porphyromonas asaccharolytica; experiment: Antimicrobial activity against Porphyromonas asaccharolyticus ATCC 25260 by agar dilution method in presence of 5% laked sheep blood; assay type: functional; conditions: DSM 20707
# [35] = test system: Prevotella oris; experiment: Antimicrobial activity against Prevotella oris ATCC 33573 by agar dilution method in presence of 5% laked sheep blood; assay type: functional; conditions: Segatella oris
# [36] = test system: Lactobacillus acidophilus; experiment: Antimicrobial activity against Lactobacillus acidophilus JCM 1132 by agar dilution method in presence of 5% laked sheep blood; assay type: functional
# [37] = test system: Desulfovibrio desulfuricans; experiment: Antimicrobial activity against Desulfovibrio desulfuricans ATCC 29577 by agar dilution method in presence of 5% laked sheep blood; assay type: functional
# [38] = Antimicrobial activity against Finegoldia magna ATCC 29328 by agar dilution method in presence of 5% laked sheep blood; assay type: functional
# [39] = test system: Capnocytophaga ochracea; experiment: Antimicrobial activity against Capnocytophaga ochracea GAI 5586 by agar dilution method in presence of 5% laked sheep blood; assay type: functional
# [40] = test system: Parvimonas micra; experiment: Antimicrobial activity against Parvimonas micra VPI 5464-1 by agar dilution method in presence of 5% laked sheep blood; assay type: functional
# [41] = test system: Prevotella buccae; experiment: Antimicrobial activity against Prevotella buccae ATCC 33574 by agar dilution method in presence of 5% laked sheep blood; assay type: functional; conditions: Segatella buccae
# [42] = test system: Bacteroides fragilis; experiment: Antimicrobial activity against Bacteroides fragilis GAI 0558 by agar dilution method in presence of 5% laked sheep blood; assay type: functional
# [43] = test system: Bacteroides fragilis; experiment: Antimicrobial activity against Bacteroides fragilis ATCC 25285 by agar dilution method in presence of 5% laked sheep blood; assay type: functional; conditions: NCTC 9343
# [44] = test system: Phocaeicola vulgatus; experiment: Antimicrobial activity against Bacteroides vulgatus GAI 0673 by agar dilution method in presence of 5% laked sheep blood; assay type: functional
# [45] = Antimicrobial activity against Desulfovibrio piger DSM 749 by agar dilution method in presence of 5% laked sheep blood; assay type: functional, Desulfovibrio piger ATCC 29098
# [46] = test system: Bacteroides fragilis; experiment: Antimicrobial activity against Bacteroides fragilis GAI 7955 by agar dilution method in presence of 5% laked sheep blood; assay type: functional
compound,measurement,setting,value
C[C@@H](O)[C@H]1C(=O)N2C(C(=O)O)=C(S[C@@H]3CN[C@H](C(=O)N(C)C)C3)[C@H](C)[C@H]12 [MEROPENEM],MIC,[1],0.125 µg/mL
same,MIC,[2],0.5 µg/mL
same,MIC,[3],0.03 µg/mL
same,MIC,[4],0.25 µg/mL
same,MIC,[5],> 128 µg/mL
same,MIC,[6],0.25 µg/mL
same,MIC,[7],0.25 µg/mL
same,MIC,[8],0.06 µg/mL
same,MIC,[9],1 µg/mL
same,MIC,[10],0.5 µg/mL
same,MIC,[11],0.03 µg/mL
same,MIC,[12],2 µg/mL
same,MIC,[13],≤ 0.015 µg/mL
same,MIC,[14],0.5 µg/mL
same,MIC,[15],0.25 µg/mL
same,MIC,[16],1 µg/mL
same,MIC,[17],≤ 0.015 µg/mL
same,MIC,[18],0.25 µg/mL
same,MIC,[19],0.03 µg/mL
same,MIC,[20],> 128 µg/mL
same,MIC,[21],≤ 0.015 µg/mL
same,MIC,[22],0.06 µg/mL
same,MIC,[23],0.06 µg/mL
same,MIC,[24],0.06 µg/mL
same,MIC,[25],1 µg/mL
same,MIC,[26],0.25 µg/mL
same,MIC,[27],0.5 µg/mL
same,MIC,[28],≤ 0.015 µg/mL
same,MIC,[29],0.25 µg/mL
same,MIC,[30],0.03 µg/mL
same,MIC,[31],0.25 µg/mL
same,MIC,[32],≤ 0.015 µg/mL
same,MIC,[33],0.25 µg/mL
same,MIC,[34],≤ 0.015 µg/mL
same,MIC,[35],0.06 µg/mL
same,MIC,[36],0.25 µg/mL
same,MIC,[37],0.125 µg/mL
same,MIC,[38],0.125 µg/mL
same,MIC,[39],0.03 µg/mL
same,MIC,[40],0.125 µg/mL
same,MIC,[41],0.25 µg/mL
same,MIC,[42],0.05 µg/mL
same,MIC,[43],0.25 µg/mL
same,MIC,[44],0.125 µg/mL
same,MIC,[45],0.03 µg/mL
same,MIC,[46],2 µg/mL
